Laboratory results as given in US12252524B2, “GIP/GLP1 co-agonist compounds” (Eli Lilly and Company, priority 2018, dated 2025).

What was measured:
[1] = molecular target: T1, human GLP-1R (Homo sapiens, UniProt P43220); assay: [125I]-GLP-1 binding (SPA), human GLP-1 receptor; parameters: expressed in transfected cells; crude membranes
Outline: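 Ki values are geometric means with SEM over independent replicates on different days, derived from IC50s fitted by four-parameter nonlinear regression. The assay used crude cell membranes in HEPES buffer, pH 7.4, containing CaCl2, MgCl2, bacitracin and TWEEN-20.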

[2] = Proteolytic stability assay in 90% pig small intestinal fluid (pSIF); format: in vitro ADME; settings: 90% pSIF, 37° C.
Procedure: Peptides are diluted to a concentration of 0.4 mg/mL in 90% pig small intestinal fluid. After the mixing, 20 μL are immediately removed (time 0 for the time point of pre-incubation). The mixture is then incubated at 37° C. at 150 rpm. […] The sample is centrifuged at 20,000×g for 20 min at 4° C.
The data analysis is performed using MassLynx.

[3] = molecular target: T1, human GLP-1R; assay: GLP-1R HEK293 cell membrane [35S]GTPγS binding assay; format: biochemical; parameters: expressed in transfected cells; host or cells: HEK293 cells expressing human GLP-1R; membranes
Outline: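 Agonist-driven Gαs activation read as [35S]GTPγS ([…]) binding to receptor-expressing HEK293 membranes, 30 min at room temperature, pH 7.4. Detection by anti-Gαs immunocapture on scintillation beads; EC50 derived from four-parameter logistic concentration-response fit.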

[4] = molecular target: T2, human Gcg receptor (Homo sapiens, UniProt P47871); assay: [125I]-Glucagon binding (SPA), human Gcg receptor
T2 construct: expressed in transfected cells; crude membranes
T2 sequence (P47871 26-477): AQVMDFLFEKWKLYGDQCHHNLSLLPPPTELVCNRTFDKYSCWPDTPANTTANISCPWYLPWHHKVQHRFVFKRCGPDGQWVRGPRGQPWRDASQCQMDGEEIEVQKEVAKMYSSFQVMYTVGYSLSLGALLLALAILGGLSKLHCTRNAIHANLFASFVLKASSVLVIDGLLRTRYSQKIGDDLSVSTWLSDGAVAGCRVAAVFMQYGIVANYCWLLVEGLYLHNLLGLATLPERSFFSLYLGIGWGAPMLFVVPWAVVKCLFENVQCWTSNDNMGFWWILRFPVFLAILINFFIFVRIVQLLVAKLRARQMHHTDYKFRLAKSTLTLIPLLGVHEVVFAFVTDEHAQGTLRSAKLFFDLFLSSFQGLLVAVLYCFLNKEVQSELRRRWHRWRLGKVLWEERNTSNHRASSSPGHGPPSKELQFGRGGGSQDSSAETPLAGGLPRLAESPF
Outline: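 Crude membranes from cells expressing the receptor, prepared by hypotonic lysis in 50 mM Tris HCl pH 7.5 with protease inhibitors, homogenization and differential centrifugation, were used in a WGA-bead SPA. Binding buffer: 25 mM HEPES pH 7.4, 2.5 mM CaCl2, 1 mM MgCl2, bacitracin, Tween-20.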

[5] = molecular target: human GLP-1 receptor (GLP-1R) (Homo sapiens, UniProt P43220); assay: cAMP pharmacological functional assay in presence of casein, hGLP-1R; format: cell-based
Chain of human GLP-1 receptor (GLP-1R) (P43220 24-463): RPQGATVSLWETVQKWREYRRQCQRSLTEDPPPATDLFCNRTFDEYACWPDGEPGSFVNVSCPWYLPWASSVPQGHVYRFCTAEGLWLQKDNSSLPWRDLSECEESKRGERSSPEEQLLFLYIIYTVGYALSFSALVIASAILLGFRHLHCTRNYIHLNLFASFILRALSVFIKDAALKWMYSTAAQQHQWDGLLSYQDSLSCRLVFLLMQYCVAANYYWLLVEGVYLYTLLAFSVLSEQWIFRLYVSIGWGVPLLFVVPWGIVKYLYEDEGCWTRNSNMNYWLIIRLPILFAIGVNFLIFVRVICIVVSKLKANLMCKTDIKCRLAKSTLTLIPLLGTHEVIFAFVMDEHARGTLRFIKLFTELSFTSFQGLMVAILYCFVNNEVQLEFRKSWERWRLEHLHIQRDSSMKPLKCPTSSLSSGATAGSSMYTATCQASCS

[6] = molecular target: T3, gastric inhibitory peptide receptor (GIPR) (Homo sapiens, UniProt P48546); assay: cAMP pharmacological functional assay in presence of casein, hGIPR; format: cell-based
T3 sequence (P48546 22-466): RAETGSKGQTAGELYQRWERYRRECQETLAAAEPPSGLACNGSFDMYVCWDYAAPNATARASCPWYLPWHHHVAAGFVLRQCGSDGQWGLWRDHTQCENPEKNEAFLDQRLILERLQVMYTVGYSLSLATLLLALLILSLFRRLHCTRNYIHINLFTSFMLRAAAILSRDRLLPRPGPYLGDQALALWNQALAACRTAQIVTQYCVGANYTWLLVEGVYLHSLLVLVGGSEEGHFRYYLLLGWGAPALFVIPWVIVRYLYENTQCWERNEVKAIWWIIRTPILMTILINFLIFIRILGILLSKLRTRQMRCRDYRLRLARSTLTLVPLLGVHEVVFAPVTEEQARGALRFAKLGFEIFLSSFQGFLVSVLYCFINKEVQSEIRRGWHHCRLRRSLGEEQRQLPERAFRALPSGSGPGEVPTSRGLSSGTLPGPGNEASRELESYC

[7] = molecular target: T4, human GIP receptor (Homo sapiens, UniProt P48546); assay: [125I]-GIP binding (SPA), human GIP receptor
T4 construct: expressed in transfected cells; crude membranes
T4 sequence (P48546 22-466): T3 sequence (P48546 22-466)

T1 sequence (P43220 24-463): as the sequence (P43220 24-463) above

CC[C@H](C)[C@H](NC(=O)[C@H](CC(C)C)NC(=O)[C@](C)(Cc1ccc(O)cc1)NC(=O)[C@@H](CCC(=O)O)NC(=O)[C@@H](NC(=O)[C@H](Cc1ccccc1)NC(=O)[C@H](CCC(=O)O)NC(=O)C(C)(C)NC(=O)[C@H](CCC(N)=O)NC(=O)[C@H](C)NC(=O)[C@H](CCCCNC(=O)COCCOCCNC(=O)COCCOCCNC(=O)CC[C@H](NC(=O)CCCCCCCCCCCCCCCCC(=O)O)C(=O)O)NC(=O)[C@H](CCCN)NC(=O)[C@H](CC(=O)O)NC(=O)[C@H](CC(C)C)NC(=O)[C@](C)(CC(C)C)NC(=O)[C@@H](NC(=O)[C@H](CO)NC(=O)[C@@H](NC(=O)[C@H](CC(=O)O)NC(=O)[C@H](CO)NC(=O)[C@@H](NC(=O)[C@](C)(Cc1ccccc1F)NC(=O)[C@@H](NC(=O)CNC(=O)[C@H](CCC(=O)O)NC(=O)C(C)(C)NC(=O)[C@@H](N)Cc1ccc(O)cc1)[C@@H](C)O)[C@@H](C)O)C(C)C)[C@@H](C)CC)[C@@H](C)CC)C(=O)N[C@@H](CCC(=O)O)C(=O)NCC(=O)NCC(=O)N1CCC[C@H]1C(=O)N[C@@H](CO)C(=O)N[C@@H](CO)C(=O)NCC(=O)N[C@@H](C)C(=O)N1CCC[C@H]1C(=O)N1CCC[C@H]1C(=O)N1CCC[C@H]1C(=O)N[C@@H](CO)C(N)=O [Example 5]
Ki [1]: 0.902 nM | percentage of peptide not cleaved using pSIF ([2]; 0 min): 100% | remaining at 0.5 h, 0.4 mg/mL ([2]; pig, 90% pig small intestinal fluid (pSIF), 30 min, read-out: percentage of peptide not cleaved using pSIF): 76.9% | remaining at 0.75 h, 0.4 mg/mL ([2]; pig, 90% pig small intestinal fluid (pSIF), 45 min, read-out: percentage of peptide not cleaved using pSIF): 56.8% | remaining at 1 h, 0.4 mg/mL ([2]; pig, 90% pig small intestinal fluid (pSIF), 60 min, read-out: percentage of peptide not cleaved using pSIF): 60.7% | EC50 [3]: 0.196 nM | Ki [4]: 519 nM | EC50 [5]: 0.0164 nM | EC50 [6]: 0.0309 nM | Ki [7]: 0.0611 nM
